Tested on: PAPRH
Assay: Postemergence foliar herbicidal activity of mixtures in cereal crops, greenhouse (Example III)
Assay type: in vivo, Papaver rhoeas L.
Details: foliar-applied
Procedure: Seeds of the desired test plant species were planted in Sun Gro MetroMix® 306 planting mixture, which typically has a pH of 6.0 to 6.8 and an organic matter content of about 30 percent, in plastic pots with a surface area of 103.2 square centimeters (cm^2). When required to ensure good germination and healthy plants, a fungicide treatment and/or other chemical or physical treatment was applied. The plants were grown for 7-36 days in a greenhouse with an approximate 14 hour photoperiod which was maintained at about 18° C. during the day and about 17° C. during the night. Nutrients and water were added on a regular basis and supplemental lighting was provided with overhead metal halide 1000-Watt lamps as necessary. The plants were employed for testing when they reached the second or third true leaf stage.
Treatments consisted of the benzyl ester of 4-amino-3-chloro-5-fluoro-6-(4-chloro-2-fluoro-3-methoxy-phenyl)pyridine-2-carboxylic acid (Compound A), formulated as an SC, a second cereal herbicide alone and then both in combination.
Other herbicidal components were applied on an active ingredient basis and included PSII-inhibiting herbicides.
Measured aliquots of benzyl ester of 4-amino-3-chloro-5-fluoro-6-(4-chloro-2-fluoro-3-methoxy-phenyl)pyridine-2-carboxylic acid (Compound A) were placed in 25 milliliter (mL) glass vials and diluted in a volume of 1.25% (v/v) Agri-Dex® crop oil concentrate to obtain stock solutions. Compound requirements are based upon a 12 mL application volume at a rate of 187 liters per hectare (L/ha). Spray solutions of the second cereal herbicide and experimental compound mixtures were prepared by adding the stock solutions to the appropriate amount of dilution solution to form 12 mL spray solution with active ingredients in two- and three-way combinations. Formulated compounds were applied to the plant material with an overhead Mandel track sprayer equipped with an 8002E nozzle calibrated to deliver 187 L/ha over an application area of 0.503 square meters (m^2) at a spray height of 18 inches (46 cm) above average plant canopy. Control plants were sprayed in the same manner with the solvent blank.
The treated plants and control plants were placed in a greenhouse as described above and watered by sub-irrigation to prevent wash-off of the test compounds. After 20-22 days, the condition of the test plants as compared with that of the control plants was determined visually and scored on a scale of 0 to 100 percent where 0 corresponds to no injury and 100 corresponds to complete kill.
Colby's equation was used to determine the herbicidal effects expected from the mixtures (Colby, S. R. 1967. Calculation of the synergistic and antagonistic response of herbicide combinations. Weeds 15:20-22.).
The following equation was used to calculate the expected activity of mixtures containing two active ingredients, A and B: Expected=A+B−(A×B/100)

## COc1c(Cl)ccc(-c2nc(C(=O)OCc3ccccc3)c(Cl)c(N)c2F)c1F [Compound A Benzyl Ester, benzyl ester of 4-amino-3-chloro-5-fluoro-6-(4-chloro-2-fluoro-3-methoxy-phenyl)pyridine-2-carboxylic acid]
5 g ai/ha alone
  Visual Weed Control (%) - 21 DAA PAPRH Obs: 28%
10 g ai/ha alone
  Visual Weed Control (%) - 21 DAA PAPRH Obs: 35%
